Test results as given in US6399614B1, “1-(N-phenylaminoalkyl)piperazine derivatives substituted at position 2 of the phenyl ring” (Recordati S.A. Chemical and Pharmaceutical Company, priority 1997, dated 2002).
Where two headings read alike, the source gives them in different places.

What was measured:
[1] = system: rhythmic bladder voiding contractions; assay: Volume-induced rhythmic bladder voiding contractions in anaesthetized rats; assay type: in vivo, rat; settings: for ED (10 min disappearance of contractions) / ED50: Rattus norvegicus, intravenous; for ED (10 min disappearance of contractions): extrapolated dose inducing 10 min of disappearance of the contractions, anaesthetized rats, read-out: ED10 min; for ED50: extrapolated dose inducing a reduction of the number of contractions >30% in 50% of treated rats, read-out: ED50 (frequency)
Procedure: Female Sprague Dawley rats weighing 225-275 g (Crl: CDo BR, Charles River Italia) were used. The animals were housed with free access to food and water and were maintained on a forced 12 h alternating light-dark cycle at 22-24° C. for at least one week, except during the experiment. The activity on the rhythmic bladder voiding contractions was evaluated according to the method of Dray (J. Pharmacol. Methods, 13:157, 1985), with some modifications as in Guarneri (Pharmacol. Res., 27:173, 1993). Briefly, rats were anesthetized by subcutaneous injection of 1.25 g/kg (5 ml/kg) urethane, after which the urinary bladder was catheterized via the urethra using PE 50 polyethylene tubing filled with physiological saline. The catheter was tied in place with a ligature around the external urethral orifice and was connected with conventional pressure transducers (Statham P23 ID/P23 XL). […] The bladder was then filled via the recording catheter by incremental volumes of warm (37° C.) saline until reflex bladder voiding contractions occurred (usually 0.8-1.5 ml). For intravenous (i.v.) injection of bioactive compounds, PE 50 polyethylene tubing filled with physiological saline was inserted into the jugular vein. From the cystometrogram, the number of contractions recorded 15 min before (basal values) and after treatment, as well as the mean amplitude of these contractions (mean height of the peaks in mmHg) was evaluated.
Since most compounds produced an effect that was relatively rapid in onset and led to a complete cessation of bladder contractions, bioactivity was conveniently estimated by measuring the duration of bladder quiescence (i.e., the duration of time during which no contractions occurred). The number of animals tested showing a reduction in the number of contractions >30% of that observed in the basal period was also recorded.
Also computed in this manner were extrapolated doses which induced a reduction of the number of contractions of greater than 30% in 50% of treated rats (ED50, frequency) by the method of Bliss (Bliss C. I., Quart. J. Pharm. Pharmacol. 11, 192-216, 1938). After the suppressive effects of drug injection wore off, the height of the contractile peaks was compared with the height of the peaks previously recorded after the control intravenous administration of vehicle. The potency of the tested compounds (ED50 value: the extrapolated doses inducing a 30% reduction of amplitude of the contractions in 50% of treated rats) was evaluated on a quantal basis by the method of Bliss (Bliss C. I., Quart. J. Pharm. Pharmacol. 11, 192-216, 1938).

[2] = biological target: T1, human 5-HT1A serotonergic receptor (Homo sapiens, UniProt P08908); assay: Radioreceptor binding, recombinant human 5-HT1A receptors ([3H]8-OH-DPAT, HeLa membranes); settings: recombinant human receptor, [3H]8-OH-DPAT; Ki from IC50 by Cheng & Prusoff; read-out: Binding affinity for the 5-HT1A receptor, Ki
T1 construct: expressed in transfected cells; host or cells: HeLa
T1 sequence (P08908 1-422): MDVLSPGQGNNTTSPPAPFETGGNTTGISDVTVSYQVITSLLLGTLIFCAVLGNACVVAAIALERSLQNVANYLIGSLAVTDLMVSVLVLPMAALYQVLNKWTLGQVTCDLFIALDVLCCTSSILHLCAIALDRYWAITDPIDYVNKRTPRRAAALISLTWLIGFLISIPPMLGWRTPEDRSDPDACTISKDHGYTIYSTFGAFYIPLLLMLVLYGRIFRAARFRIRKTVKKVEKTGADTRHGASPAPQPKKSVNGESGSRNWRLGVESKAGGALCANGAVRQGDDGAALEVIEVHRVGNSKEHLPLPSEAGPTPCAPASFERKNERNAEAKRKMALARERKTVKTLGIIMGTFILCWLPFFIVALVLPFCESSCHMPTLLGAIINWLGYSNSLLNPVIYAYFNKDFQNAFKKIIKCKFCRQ
Procedure: Genomic clone G-21 coding for the human 5-HT1A serotonergic receptor is stably transfected in a human cell line (HeLa). HeLa cells were grown as monolayers in Dulbecco's modified Eagle's medium (DMEM), supplemented with 10% fetal calf serum and gentamicin ([…]), 5% CO2 at 37° C. Cells were detached from the growth flask at 95% confluence by a cell scraper and were lysed in ice-cold 5 mM Tris and 5 mM EDTA buffer (pH 7.4). Homogenates were centrifuged at 40000×g×20 min and pellets were resuspended in a small volume of ice-cold 5 mM Tris and 5 mM EDTA buffer (pH 7.4) and immediately frozen and stored at −70° C. until use. On the day of experiment, cell membranes were resuspended in binding buffer: 50 mM Tris HCl (pH 7.4), 2.5 mM MgCl2, 10 μM pargiline (Fargin et al., Nature 335, 358-360, 1988). Membranes were incubated in a final volume of 1 ml for 30 min at 30° C. with 0.2-1 nM [3H]8-OH-DPAT, in absence or presence of competing drugs; non-specific binding was determined in the presence of 10 μM 5-HT. The incubation was stopped by addition of ice-cold Tris-HCl buffer and rapid filtration through 0.2% polyethyleneimine pretreated Whatman GF/B or Schleicher & Schuell GF52 filters.
The inhibition of specific binding of the radioligands by the tested drugs was analyzed to estimate the IC50 value by using the non-linear curve-fitting program Allfit (De Lean et al., Am. J. Physiol. 235, E97-E102, 1978). The IC50 value was converted to an affinity constant (Ki) by the equation of Cheng & Prusoff (Cheng, Y. C.; Prusoff, W. H. Biochem. Pharmacol. 22, 3099-3108, 1973).

urinary bladder = assay: Cystometric parameters (cystometrogram) in conscious rats; assay type: in vivo, rat; settings: for BVC after treatment / MP after treatment: mean ± S.E.; for change in vivo at 0.3 mg/kg / change in vivo at 1 mg/kg: Rattus norvegicus, iv, 0.25 h, after vs before; for change in vivo at 0.3 mg/kg: i.v. 300 μg/kg; for change in vivo at 1 mg/kg: i.v. 1000 μg/kg
Procedure: Male Sprague Dawley rats (Crl: CDo BR) weighing 250-350 g were used. The animals were housed with free access to food and water and maintained on a forced 12 h alternating light-dark cycle at 22-24° C. for at least one week, except during performance of the experiment. To quantify urodynamic parameters in conscious rats, cystometrographic studies were performed using procedures previously described (Guarneri et al., Pharmacol. Res., 24:175, 1991). […] An approximately 10 mm long midline incision was made in the shaved and cleaned abdominal wall. The urinary bladder was gently freed from adhering tissues, emptied, and then cannulated, via an incision at the dome, with a polyethylene cannula (Portex PP30), which was permanently sutured with silk thread. The cannula was exteriorized through a subcutaneous tunnel in the retroscapular area, where it was connected with a plastic adapter to avoid the risk of removal by the animal. For intravenous (i.v.) injection of test compounds, a PE 50 polyethylene tubing filled with physiological saline was inserted into the jugular vein and exteriorized in the retroscapular area. The rats were utilized exclusively one day after implantation. On the day of the experiment, the rats were placed in Bollman's cages, after a stabilization period of 20 min, and the free tip of the bladder catheter was connected through a T-shaped tube to a pressure transducer (Bentley T 800/Marb P 82) and to a peristaltic pump (Gilson minipuls 2) for a continuous infusion, at the constant rate of 0.1 ml/min, of saline solution into the urinary bladder. The intraluminal pressure signal during infusion was continuously recorded on a polygraph (Battaglia Rangoni KO 380 with ADCl/T amplifier).
Two urodynamic parameters were evaluated: bladder volume capacity (BVC) and micturition pressure (MP). BVC (in ml) is defined as the minimum volume infused after which detrusor contraction (followed by micturition) occurs. MP (in mm Hg) is defined as the maximal intravesical pressure induced by the contraction of detrusor during micturition. Basal BVC and MP values were calculated as the means of the first two recorded cystometrograms. At this point in the assay, the infusion was interrupted and the test compounds were administered. Fifteen minutes after intravenous administration two additional cystometrograms were recorded in each animal and the mean values of the two cystometrographic parameters were calculated. The statistical significance of the differences in urodynamic parameter values was evaluated by Student's t test for paired data.

SMILES | ED (10 min disappearance of contractions) [1] [mg/kg] | ED50 [1] [mg/kg] | Ki [2] [nM] | other results
COc1ccccc1N1CCN(CCNc2ccccc2[N+](=O)[O-])CC1 [Example 1, 1-[N-(2-nitrophenyl)-2-aminoethyl]-4-(2-methoxyphenyl)piperazine] | 0.192 | 0.055 |  | 
COc1ccccc1N1CCN(CCN(C(=O)C2CCCCC2)c2ccc([N+](=O)[O-])cc2)CC1 [Compound C, 1-[N-(4-nitrophenyl)-N-cyclohexylcarbonyl-2-aminoethyl]-4-(2-methoxyphenyl)piperazine, reference compound] | > 1 | > 1 |  | pharmacological activity on bladder voiding contractions (in words) ([1]; nitro group at position 3 or 4 of the aniline ring): pharmacological activity was abolished
COc1ccccc1N1CCN(CCNc2ccc([N+](=O)[O-])cc2)CC1 [Compound E, 1-[N-(4-nitrophenyl)-2-aminoethyl]-4-(2-methoxyphenyl)piperazine, reference compound] | > 1 | > 1 |  | 
COc1ccccc1N1CCN(CCN(C(=O)C2CCCCC2)c2ccccc2C#N)CC1.Cl [Example 43, 1-[N-(2-cyanophenyl)-N-cyclohexylcarbonyl-2-aminoethyl]-4-(2-methoxyphenyl)piperazine Hydrochloride] | 0.052 | 0.004 |  | 
COc1ccccc1N1CCN(CCNc2ccccc2)CC1 [Compound AA, 1-(N-phenyl-2-aminoethyl)-4-(2-methoxyphenyl)piperazine, reference compound] | 0.663 | 0.244 |  | 
COc1ccccc1N1CCN(CCNc2cccc([N+](=O)[O-])c2)CC1 [Compound D, 1-[N-(3-nitrophenyl)-2-aminoethyl]-4-(2-methoxyphenyl)piperazine, reference compound] | > 1 | > 1 |  | 
COc1ccccc1N1CCN(C(C)CN(C(=O)C2CCCCC2)c2ccccc2[N+](=O)[O-])CC1 (stereo not shown) [Example 45, 1-[N-(2-nitrophenyl)-N-cyclohexylcarbonyl-1-amino-2-propyl]-4-(2methoxyphenyl)piperazine] |  |  | 2.21 | 
FC(F)(F)COc1ccccc1NCCN1CCN(c2cccc3[nH]ccc23)CC1 [Example 68] |  |  | 9.32 | 
COc1cc(NC(=O)C(F)(F)F)ccc1N1CCN(CCN(C(=O)C2CCCCC2)c2ccccc2OC(F)(F)F)CC1 [Example 58, 1-[N-cyclohexylcarbonyl-N-(2-trifluoromethoxyphenyl)-2-aminoethyl]-4-(4-trifluoroacetylamino-2-methoxyphenyl)piperazine] |  |  | 2.44 | 
COc1ccccc1N1CCN(CCNc2ccccc2I)CC1 [Example 7, 1-[N-(2-iodophenyl)-2-aminoethyl]-4-(2-methoxyphenyl)piperazine] |  |  | 3.82 | 
COc1ccccc1N1CCN(CCN(C(=O)C2CCCCC2)c2ccccc2I)CC1 [Example 8] |  |  | 0.36 | BVC after treatment (urinary bladder; 15 min after i.v. 300 μg/kg): 0.71 ± 0.05 mL; MP after treatment (urinary bladder; 15 min after i.v. 300 μg/kg): 98.3 ± 17.2 mmHg; BVC after treatment (urinary bladder; 15 min after i.v. 1000 μg/kg): 0.88 ± 0.12 mL; MP after treatment (urinary bladder; 15 min after i.v. 1000 μg/kg): 64.8 ± 10.5 mmHg; change in vivo at 0.3 mg/kg (urinary bladder; read-out: BVC % of change): 21%; change in vivo at 0.3 mg/kg (urinary bladder; read-out: MP % of change): -15%; change in vivo at 1 mg/kg (urinary bladder; read-out: BVC % of change): 35%; change in vivo at 1 mg/kg (urinary bladder; read-out: MP % of change): -20%
COc1cc(NC(C)=O)ccc1N1CCN(CCN(C(=O)C2CCCCC2)c2ccccc2OCC(F)(F)F)CC1 [Example 67] |  |  | 4.76 | 
O=C(C1CCCCC1)N(CCN1CCN(c2ccccc2OC(F)(F)F)CC1)c1ccccc1OC(F)(F)F [Example 72, 1-[N-cyclohexylcarbonyl-N-(2-trifluoromethoxyphenyl)-2-aminoethyl]-4-(2-trifluoromethoxyphenyl)piperazine] |  |  | 1.22 | 
COc1ccccc1N1CCN(CCN(C(=O)c2ccoc2)c2ccccc2[N+](=O)[O-])CC1 [Example 32, 1-[N-(2-nitrophenyl)-N-(3-furylcarbonyl)-2-aminoethyl]-4-(2-methoxyphenyl)piperazine] |  |  | 19.4 | 
COc1ccccc1N1CCN(CC(C)Nc2ccccc2[N+](=O)[O-])CC1 (stereo not shown) [Example 52, 1-[N-(2-nitrophenyl)-2-aminopropyl]-4-(2-methoxyphenyl)piperazine] |  |  | 34 | 
O=C(C1CCCCC1)N(CCN1CCN(Cc2cc(Cl)ccc2Cl)CC1)c1ccccc1[N+](=O)[O-] [Example 15, 1-[N-(2-nitrophenyl)-N-cyclohexylcarbonyl-2-aminoethyl]-4-(2,5-dichlorobenzyl)piperazine] |  |  | 6.2 | 
